Data as given in patent EP0526502B1, “PHENOLIC AMINE DEPIGMENTING AND ANTIMELANOMA AGENTS” (The Governors of the University of Alberta, priority 1990, dated 1991).
“And” between values parts separate entries of the source, which are not always exact repeats. Equal entries are not always repeated.

What was measured:
B16F10 melanoma = assay: Melanoma-colony formation in the lungs; type: in vivo, mice; settings: 900 mg/kg i.p. daily for 14 days from day five; lungs excised day 26
Method: Murine B16F10 melanoma cell line with a strong metastatic property to form tumour colonies in the lungs was obtained from Dr. Longenecker, Department of Immunology, University of Alberta. Such cell line is well recognized and readily available as reported in Miura et al, supra. The cells were grown in T-75 flasks in dulbecco's MEM available from Gipco Lab Inc., Grand Island, New York, supplemented with 10% fetal calf serum, also obtained from Gipco, penicillin (100 »/ml) and streptomycin (100 »g/ml). The cells were incubated at 37°C in humidified atmosphere of 5% CO₂ in air. The cells were harvested by applying a thin layer of 0.25% trypsin solution in EDTA, washed and resuspended in cold N saline solution. Viable cells were identified by trypan blue dye exclusion and counted. The cell suspension was diluted to the desired concentration. Three groups of mice were studied using a control 4-S-CAP and N-Ac-4-S-CAP as the active agents in the treatment. On day zero, the mice were inoculated via the lateral tail vein with 5 x 10⁴ cells in 0.2 ml of N saline. The test drugs were dissolved in normal saline, sterilized by membrane filtration, and administered in a dose of 300 mg/Kg (4-S-CAP) or 900 mg/Kg (N-Ac-4-S-CAP); starting on day five, the control solution or drug was injected i.p. daily for 14 days. On day 26, the mice were killed by cervical dislocation, their lungs were removed, and the number of melanoma colonies was counted under a dissecting microscope. The results were expressed as percentage reduction in the number of colonies: [a - b/a] x 100, where a = colonies in control group and b = colonies in experimental group.

follicular melanocytes = assay: Depigmentation of new hair after plucking (PTCA/eumelanin content of hair follicles); type: in vivo, C57BL/6J black mice; settings: for PTCA Content / Depigmentation: 300 mg/kg daily for 14 days, hair harvested day 22; for Depigmentation: 300 mg/kg
Method: Breeding pairs of C57BL/6J black mice were purchased from Jackson Laboratory, Bar Harbor, Maine. Female progeny were used in this testing when approximately 8 weeks old and weighing 17 grams.
Black hairs were plucked manually from the back of the mice to initiate new anagen growth and activate follicular melanocytes with increased tyrosinase activity. Thirty mice were randomized into 6 groups of 5 (1 control and 1 for each compound). Starting on day 1, daily for 14 days the agent was injected i.p. or was infiltrated s.c. in an area where hair follicles had been plucked; the dose was 300 mg/kg body weight.
In the same 30 mice, hair follicles were harvested on day 22 (early telogen phase) and their eumelanin content analyzed. Details of the assay, including chemical degration of melanin and high-performance liquid chromatography (HPLC) were as described in Ito et al, "Quantitative Analysis of Eumelanin and Pheomelanin in Hair and Melanosomes" J. Invest. Dermatol 80:268-272, 1983. Briefly, a 10-mg hair sample is homogenized in water at a concentration of 10 mg/ml; the 200-»l homogenate is transferred to a screw-capped test tube, mixed with 1M H₂SO₄ (800 »L) and oxidized with 3% KMnO₄. The product, pyrrole-2,3,5-tricarboxylic acid (PTCA), is analyzed by HPLC with a UVL detector; samples are measured in duplicate. The eumelanin content is expressed as PTCA (ng/mg) against the PCTA content of BALB/c albino mice as control (≦ 10 ng/mg, the background value with our method, in which 1 ng corresponds roughly to a eumelanin content of 50 ng), and the degree of depigmentation is expressed as a percentage: (PTCA content of control sampleminusPTCA content of experimental sample)/(PCTA content of control sample) x 100 [formula] .

melanocytes = assay: Light and electron microscopy of melanocytes in regrowing hair follicles; type: in vivo, mice
Method: In six groups of 4 mice (1 control and 1 for each compound) were treated daily with the control or compound injected i.p. The compounds tested were 4-S-CAP, N-Ac-4-S-CAP and α-Me-4-S-CAP. Samples of skin and regrowing hair follicles were excised under brief general anaesthesia on day 10 (late anagen phase), fixed in Karnovsky's solution (2.5% glutaraldehyde and 2.5% paraformaldehyde in 0l1 M cacodylate buffer), and refixed in 1% osmium tetroxide in cadodylate buffer. Tissues were stained en bloc with 1.5% uranyl acetate in o.1 M veronal buffer for 30min, dehydrated in graded ethanol solutions, embedded in epoxy resin, and sectioned with a Potter-Blum ultramicrotome MT II. Sections 1.0 »m thick were stained with methylene blue for light microscopy, thin sections were stained with led citrate for electron microscopy.

What does the source list for CC(=O)NCCSc1ccc(O)cc1 [N-Ac-4-S-CAP, N-ACETYL-4-S-CYSTEAMINYLPHENOL]?
No. of Colonies % control (B16F10 melanoma): 25% and 24.9%; No. of Colonies per pair of lungs (B16F10 melanoma): 21.5 ± 10.8; PTCA Content (follicular melanocytes; Route s.c.): 30.8 ± 9.1 ng/mg; Depigmentation (follicular melanocytes; Route s.c.): 97.2%; PTCA Content (follicular melanocytes; Route: i.p.): 26.0 ± 10.3 ng/mg; Depigmentation (follicular melanocytes; Route: i.p.): 97.6%; visible pigmentation of new hair (follicular melanocytes; i.p. or s.c. route, result in words): almost pure white as in albino mice; light microscopy of hair follicles: functioning melanocytes and melanin pigments (melanocytes; i.p. daily, day 10 (late anagen phase)): neither functioning melanocytes nor melanin pigments remained in the follicles; electron microscopy of hair follicles: melanocytes and melanosomes (melanocytes; i.p. injection for 10 days): no melanocytes or melanosomes were visible
